Test results taken from patent US7745495B2, “Pyridine ketones with herbicidal effect” (Syngenta Crop Protection, Inc., priority 2004, dated 2010).

What was measured:
Type in all cases: in vivo
Chenopodium [1] = assay: Pre-emergence herbicidal action; details: 250 g/ha; after 3 weeks; rating 10=total damage, 0=no action
Procedure: (§1) Monocotyledonous and dicotyledonous test plants are sown in standard soil in plastic pots. Immediately after sowing, the test compounds, in the form of an aqueous suspension (prepared from a 25% wettable powder (Example F3, b) according to WO 97/34485) or in the form of an emulsion (prepared from a 25% emulsifiable concentrate (Example F1, c)), are applied by spraying a concentration corresponding to 125 g or 250 g of active ingredient/ha (500 liter of water/ha). The test plants are then grown in a greenhouse under optimum conditions. After a test duration of 3 weeks, the test is evaluated in accordance with a scale of ten ratings (10=total damage, 0=no action). Ratings of from 10 to 7 (especially from 10 to 8) indicate good to very good herbicidal action.

Stellaria [2] = assay: Pre-emergence herbicidal action; details: 250 g/ha; after 3 weeks; rating 10=total damage, 0=no action
Procedure: as §1

Sinapis = assay: Post-emergence herbicidal action; details: 250 g/ha; 4- to 6-leaf stage; after about 18 days; rating 10=total damage, 0=no action
Procedure: (§2) In a greenhouse, monocotyledonous and dicotyledonous test plants are grown in standard soil in plastic pots and at the 4- to 6-leaf stage are sprayed with an aqueous suspension of the test compounds of formula I prepared from a 25% wettable powder (Example F3, b) according to WO 97/34485) or with an emulsion of the test compounds of formula I prepared from a 25% emulsifiable concentrate (Example F1, c) according to WO 97/34485), in a concentration corresponding to 125 g or 250 g of active ingredient/ha (500 liter of water/ha). The test plants are then grown on in a greenhouse under optimum conditions. After a test duration of about 18 days, the test is evaluated in accordance with a scale of ten ratings (10=total damage, 0=no action). Ratings of from 10 to 7 (especially from 10 to 8) indicate good to very good herbicidal action.

Panicum [3] = assay: Post-emergence herbicidal action; details: 250 g/ha; 4- to 6-leaf stage; after about 18 days; rating 10=total damage, 0=no action
Procedure: as §2

Chenopodium [4] = assay: Post-emergence herbicidal action; details: 250 g/ha; 4- to 6-leaf stage; after about 18 days; rating 10=total damage, 0=no action
Procedure: as §2

Setaria [5] = assay: Post-emergence herbicidal action; details: 250 g/ha; 4- to 6-leaf stage; after about 18 days; rating 10=total damage, 0=no action
Procedure: as §2

Ipomea = assay: Post-emergence herbicidal action; details: 250 g/ha; 4- to 6-leaf stage; after about 18 days; rating 10=total damage, 0=no action
Procedure: as §2

Abutilon [6] = assay: Post-emergence herbicidal action; details: 250 g/ha; 4- to 6-leaf stage; after about 18 days; rating 10=total damage, 0=no action
Procedure: as §2

Digitaria [7] = assay: Post-emergence herbicidal action; details: 250 g/ha; 4- to 6-leaf stage; after about 18 days; rating 10=total damage, 0=no action
Procedure: as §2

Stellaria [8] = assay: Post-emergence herbicidal action; details: 250 g/ha; 4- to 6-leaf stage; after about 18 days; rating 10=total damage, 0=no action
Procedure: as §2

Panicum [9] = assay: Pre-emergence herbicidal action; details: 250 g/ha; after 3 weeks; rating 10=total damage, 0=no action
Procedure: (§3) Monocotyledonous and dicotyledonous test plants are sown in standard soil in plastic pots. […] The test plants are then grown in a greenhouse under optimum conditions. After a test duration of 3 weeks, the test is evaluated in accordance with a scale of ten ratings (10=total damage, 0=no action). Ratings of from 10 to 7 (especially from 10 to 8) indicate good to very good herbicidal action.

Amaranthus = assay: Pre-emergence herbicidal action; details: rating 10=total damage, 0=no action; for Pre-emergence herbicidal action: Amaranthus: 250 g/ha, after 3 weeks; for Pre-emergent Herbicidal Activity: Amaranthus: Table B3
Procedure: as §3

Echinochloa = assay: Pre-emergence herbicidal action; details: rating 10=total damage, 0=no action; for Pre-emergence herbicidal action: Echinochloa: 250 g/ha, after 3 weeks; for Pre-emergent Herbicidal Activity: Echinochloa: Table B3
Procedure: as §3

Abutilon [10] = assay: Pre-emergence herbicidal action; details: rating 10=total damage, 0=no action; for Pre-emergence herbicidal action: Abutilon: 250 g/ha, after 3 weeks; for Pre-emergent Herbicidal Activity: Abutilon: Table B3
Procedure: as §3

Digitaria [11] = assay: Pre-emergence herbicidal action; details: 250 g/ha; after 3 weeks; rating 10=total damage, 0=no action
Procedure: as §3

Corn = assay: Pre-emergent herbicidal activity on crop plant; details: for Pre-emergent Herbicidal Activity: Corn: Table B3, crop plant, rating 10=total damage, 0=no action
Procedure: as §3
(§4) In the following Table B3, the pre-emergent herbicidal activity of compound H-14 according to the invention is compared with 4 compounds according to the prior art. All compounds are structurally identical except for the nature of the alkylene linker attached to the pyridine ring.

Soya = assay: Pre-emergent herbicidal activity on crop plant; details: for Pre-emergent Herbicidal Activity: Soya: Table B3, crop plant, rating 10=total damage, 0=no action
Procedure: as §3, §4

Brachiaria = assay: Pre-emergent herbicidal activity; details: Table B3, rating 10=total damage, 0=no action
Procedure: as §3, §4

Setaria [12] = assay: Pre-emergent herbicidal activity; details: Table B3, rating 10=total damage, 0=no action
Procedure: as §3, §4

[13] = pre-emergent, 30 and 15 g/ha, result in words on Table B3

Compound | Post-emergence herbicidal action: Sinapis (Sinapis) | Post-emergence herbicidal action: Panicum (Panicum [3]) | Post-emergence herbicidal action: Chenopodium (Chenopodium [4]) | Post-emergence herbicidal action: Setaria (Setaria [5]) | Post-emergence herbicidal action: Ipomea (Ipomea) | Post-emergence herbicidal action: Abutilon (Abutilon [6]) | Post-emergence herbicidal action: Digitaria (Digitaria [7]) | Post-emergence herbicidal action: Stellaria (Stellaria [8]) | Pre-emergent Herbicidal Activity: Corn (Corn; 15 g/ha) | Pre-emergent Herbicidal Activity: Corn (Corn; 30 g/ha) | Pre-emergent Herbicidal Activity: Soya (Soya; 15 g/ha) | Pre-emergent Herbicidal Activity: Soya (Soya; 30 g/ha) | Pre-emergent Herbicidal Activity: Brachiaria (Brachiaria; 15 g/ha) | Pre-emergent Herbicidal Activity: Brachiaria (Brachiaria; 30 g/ha) | Pre-emergent Herbicidal Activity: Setaria (Setaria [12]; 30 g/ha) | Pre-emergent Herbicidal Activity: Amaranthus (Amaranthus; 15 g/ha) | Pre-emergent Herbicidal Activity: Amaranthus (Amaranthus; 30 g/ha) | Pre-emergent Herbicidal Activity: Echinochloa (Echinochloa; 30 g/ha) | Pre-emergent Herbicidal Activity: Abutilon (Abutilon [10]; 15 g/ha) | Pre-emergent Herbicidal Activity: Abutilon (Abutilon [10]; 30 g/ha) | further results
COCCCc1nc(C(F)F)ccc1C(=O)C1C(=O)C2CCC(C)(C2)C1=O (stereo not drawn) [Compound H-1] | 8 | 9 | 8 | 8 | 9 | 9 | 9 | 8 |  |  |  |  |  |  |  |  |  |  |  |  | Pre-emergence herbicidal action: Chenopodium (Chenopodium [1]): 10; Pre-emergence herbicidal action: Stellaria (Stellaria [2]): 7; Pre-emergence herbicidal action: Panicum (Panicum [9]): 9; Pre-emergence herbicidal action: Amaranthus (Amaranthus): 9; Pre-emergence herbicidal action: Echinochloa (Echinochloa): 9; Pre-emergence herbicidal action: Abutilon (Abutilon [10]): 9; Pre-emergence herbicidal action: Digitaria (Digitaria [11]): 9
COCCCc1nc(C(F)(F)F)ccc1C(=O)C1C(=O)C2CCCC(C2)C1=O (stereo not drawn) [Compound H-19] | 9 | 8 | 9 | 8 | 8 | 8 | 9 | 8 |  |  |  |  |  |  |  |  |  |  |  |  | 
CCC12CCC(C1)C(=O)C(C(=O)c1ccc(C(F)(F)F)nc1CCCOC)C2=O (stereo not drawn) [Compound H-17] | 9 | 8 | 8 | 8 | 7 | 9 | 7 | 9 |  |  |  |  |  |  |  |  |  |  |  |  | 
COCCCCc1nc(C(F)(F)F)ccc1C(=O)C1C(=O)C2CCC(C2)C1=O (stereo not drawn) [Compound F] |  |  |  |  |  |  |  |  | 0 | 0 | 0 | 0 | 0 | 6 | 6 | 7 | 7 | 7 | 8 | 8 | phytotoxic effect on the crop plants (corn) (Corn; [13]): no phytotoxic effect; phytotoxic effect on the crop plants (soya) (Soya; [13]): no phytotoxic effect
COCCCc1nc(C(F)F)ccc1C(=O)C1C(=O)C2CCC(CC2)C1=O (stereo not drawn) [Compound H-4] | 9 | 9 | 7 | 7 | 7 | 8 | 9 | 8 |  |  |  |  |  |  |  |  |  |  |  |  | Pre-emergence herbicidal action: Chenopodium (Chenopodium [1]): 9; Pre-emergence herbicidal action: Stellaria (Stellaria [2]): 7; Pre-emergence herbicidal action: Panicum (Panicum [9]): 9; Pre-emergence herbicidal action: Amaranthus (Amaranthus): 9; Pre-emergence herbicidal action: Echinochloa (Echinochloa): 9; Pre-emergence herbicidal action: Abutilon (Abutilon [10]): 9; Pre-emergence herbicidal action: Digitaria (Digitaria [11]): 9
COCCCc1nc(C(F)(F)F)ccc1C(=O)C1C(=O)C2CCC(C)(C2)C1=O (stereo not drawn) [Compound H-16] | 10 | 10 | 10 | 10 | 9 | 9 | 9 | 10 |  |  |  |  |  |  |  |  |  |  |  |  | Pre-emergence herbicidal action: Chenopodium (Chenopodium [1]): 9; Pre-emergence herbicidal action: Stellaria (Stellaria [2]): 8; Pre-emergence herbicidal action: Panicum (Panicum [9]): 10; Pre-emergence herbicidal action: Amaranthus (Amaranthus): 8; Pre-emergence herbicidal action: Echinochloa (Echinochloa): 10; Pre-emergence herbicidal action: Abutilon (Abutilon [10]): 10; Pre-emergence herbicidal action: Digitaria (Digitaria [11]): 10
COCCc1nc(C(F)(F)F)ccc1C(=O)C1C(=O)C2CCC(C2)C1=O (stereo not drawn) [A] |  |  |  |  |  |  |  |  | 0 | 0 | 2 | 5 | 6 | 7 | 7 | 7 | 7 | 9 | 9 | 9 | Pre-emergent Herbicidal Activity: Setaria (Setaria [12]; 15 g/ha): 6; Pre-emergent Herbicidal Activity: Echinochloa (Echinochloa; 15 g/ha): 4
COC/C=C\c1nc(C(F)(F)F)ccc1C(=O)C1C(=O)C2CCC(C2)C1=O (stereo not drawn) [C] |  |  |  |  |  |  |  |  | 0 | 0 | 0 | 0 | 0 | 0 | 2 | 3 | 5 | 3 | 3 | 4 | Pre-emergent Herbicidal Activity: Setaria (Setaria [12]; 15 g/ha): 2; Pre-emergent Herbicidal Activity: Echinochloa (Echinochloa; 15 g/ha): 3
COCc1nc(C(F)(F)F)ccc1C(=O)C1C(=O)C2CCC(C2)C1=O (stereo not drawn) [B] |  |  |  |  |  |  |  |  | 1 | 1 | 6 | 8 | 6 | 9 | 9 | 6 | 8 | 10 | 8 | 9 | Pre-emergent Herbicidal Activity: Setaria (Setaria [12]; 15 g/ha): 8; Pre-emergent Herbicidal Activity: Echinochloa (Echinochloa; 15 g/ha): 9
